# Experimental data published in patent US10004803B2, “Low, immune enhancing, dose mtor inhibitors and uses thereof” (Novartis AG, priority 2013, dated 2018).
# Values joined by “and” are separate entries in the source; they are usually repeats but may differ in a detail not shown here. Equal entries are not always repeated. Where two headings read alike, the source gives them in different places. Marks after values point to notes of the source that are not given here.
# Assays:
# [1] = cited from earlier work
# influenza = details: cited from earlier work
# [2] = system: 3 influenza vaccine strains (H1N1, H3N2 and B); experiment: Primary endpoint: HI GMT increase relative to placebo in at least 2 out of 3 influenza vaccine strains; type: in vivo, human; details: for primary endpoint (>=1.2-fold GMT increase relative to placebo in at least 2 out of 3 vaccine strains): ITT population
# Protocol: (§1) The ability of RAD001 to improve immune function in elderly volunteers was evaluated by measuring the serologic response to the 2012 seasonal influenza vaccine. The hemagglutination inhibition (HI) geometric mean titers (GMT) to each of the 3 influenza vaccine strains at baseline and 4 weeks after influenza vaccination are provided in Table 4. The primary analysis variable was the HI GMT ratio (4 weeks post vaccination/baseline). […] This endpoint was chosen because a 1.2-fold increase in the influenza GMT ratio induced by the MF-59 vaccine adjuvant was associated with a decrease in influenza illness (Iob, A et al. (2005) Epidemiol Infect 133:687-693).
# Elderly volunteers >=65 years of age were randomized to one of the 3 RAD001 treatment groups (50 subjects per arm) or placebo (20 subjects per arm). Subjects were treated with study drug for 6 weeks, given a 2 week break, and then received influenza (Aggrippal, Novartis) and pneumoccal (Pneumovax 23, Merck), vaccinations. Response to influenza vaccination was assessed by measuring the geometric mean titers (GMTs) by hemagglutination inhibition assay to the 3 influenza strains (H1N1, H3N2 and B influenza subtypes) in the influenza vaccine 4 weeks after vaccination. The primary endpoints of the study were (1) safety and tolerability and (2) a 1.2 fold increase in influenza titers as compared to placebo in ⅔ of the influenza vaccine strains 4 weeks after vaccination. This endpoint was chosen because a 1.2 fold increase in influenza titers is associated with a decrease in influenza illness post vaccination, and therefore is clinically relevant. […] The pneumococcal vaccine contains antigens from 23 pneumococcal serotypes. Antibody titers to 7 of the serotypes were measured in our subjects.
# [3] = in vivo
# [4] = system: A/H1N1 strain A/New Jersey/8/76; type: in vivo, human; details: for Percentage of subjects who seroconvert to heterologous strain 4 weeks after seasonal influenza vaccination: A/H1N1 strain: A/NewJersey/8/76
# B/Brisbane/60/2008 = experiment: Hemagglutination inhibition (HI) titers after seasonal influenza vaccination in elderly volunteers pretreated with RAD001 or placebo; type: in vivo, human
# Protocol: (§2) From December 2011 to April 2012, 218 elderly volunteers were enrolled in a randomized, observer-blind, placebo-controlled trial. The subjects were randomized to treatment arms using a validated automated randomization system with a ratio of RAD001 to placebo of 5:2 in each treatment arm. The treatment arms were:
# (§3) The trial was observer-blind because the placebo in the RAD001 0.5 mg daily and 20 mg weekly cohorts differed slightly from the RAD001 tablets in those cohorts. […] The treatment duration for all cohorts was 6 weeks during which time subjects underwent safety evaluations in the clinic every 2 weeks. After subjects had been dosed for 4 weeks, RAD001 steady state levels were measured pre-dose and at one hour post dose. After completing the 6 week course of study drug, subjects were given a 2 week drug free break to reverse any possible RAD001-induced immunosuppression, and then were given a 2012 seasonal influenza vaccination (Agrippal®, Novartis Vaccines and Diagnostics, Siena, Italy) containing the strains H1N1 A/California/07/2009, H3N2 A/Victoria/210/2009, B/Brisbane/60/2008. Four weeks after influenza vaccination, subjects had serum collected for influenza titer measurements. Antibody titers to the 3 influenza vaccine strains as well as to 2 heterologous strains (A/H1N1 strain A/New Jersy/8/76 and A/H3N2 strain A/Victoria/361/11) were measured by standard hemagglutination inhibition assay (Kendal, A P et al. (1982) Concepts and procedures for laboratory-based influenza surveillance. Atlanta: Centers for Disease Control and Prevention B17-B35). Levels of IgG and IgM specific for the A/H1N1/California/07/2009 were measured in serum samples taken before and 4 weeks after influenza vaccination as described previously (Spensieri, F. et al. (2013) Proc. Natl. Acad. Sci. USA 110:14330-14335). Results were expressed as fluorescence intensity.
# (§4) The primary analysis of geometric mean titer ratios was done using a normal Bayesian regression model with non-informative priors. This model was fitted to each antibody titer on the log scale. The primary outcome in each model was the Day 84 measurement. The Day 63 measurement was included in the outcome vector. The model fitted using SAS 9.2 proc mixed with the prior statement. The covariance structure of the matrix was considered as unstructured (option type=UN). A flat prior was used. For the secondary analysis of seroconversion rates, logistic regression was used.
# as §1
# (§5) Rates of seroconversion 4 weeks after influenza vaccination were also evaluated. Seroconversion was defined as the change from a negative pre-vaccination titer (i.e., HI titer <1:10) to post-vaccination HI titer≥1:40 or at least 4-fold increase from a non-negative (≥1:10) pre-vaccination HI titer.
# [5] = system: H1N1 A/California/07/2009; experiment: as above; type: in vivo, human
# Protocol: as §2, §3, §4, §1, §5
# H3N2 A/Victoria/210/2009 = experiment: as above; type: in vivo, human
# Protocol: as §2, §3, §4, §1, §5
# [6] = system: A/H1N1/California/07/2009; experiment: Anti-influenza IgG and IgM levels in serum before and 4 weeks after vaccination; type: in vivo, human; details: all p values >0.05 by Kruskal-Wallis rank sum test
# Protocol: as §3, with “After completing the 6 week course of study drug, subjects were given a 2 week drug free break to reverse any possible RAD001-induced immunosuppression, and then were given a 2012 seasonal influenza vaccination (Agrippal®, Novartis Vaccines and Diagnostics, Siena, Italy) containing the strains H1N1 A/California/07/2009, H3N2 A/Victoria/210/2009, B/Brisbane/60/2008. Four weeks after influenza vaccination, subjects had serum collected for influenza titer measurements.” left out
# clinical = details: human, in vivo
# [7] = system: A/H3N2 strain A/Victoria/361/11; experiment: HI titers / seroconversion to heterologous influenza strain not contained in the vaccine; type: in vivo, human; details: for Percentage of subjects who seroconvert to heterologous strain 4 weeks after seasonal influenza vaccination: A/H3N2 strain: A/Victoria/361/11
# [8] = system: PD-1 positive and PD-1 negative CD4 and CD8 T cells; set-up: species or system human; details: in vivo
# [9] = Adverse event assessment in elderly volunteers; type: in vivo, human; details: for Treatment-related AEs: Total AE(s): N = 53
# Protocol: Adverse event assessment and blood collection for hematologic and biochemical safety assessments were performed during study visits. Adverse event information was also collected in diaries that subjects filled out at home during the 6 weeks they were on study drug. Data on all adverse events were collected from the time of informed consent until 30 days after the last study visit. Events were classified by the investigators as mild, moderate or severe.
# The 4 SAEs were retinal hemorrhage of the left eye with subsequent blindness in a subject with normal platelet counts who had completed a 6 week course of 5 mg weekly RAD001 6 weeks previously; severe back pain in a subject treated with placebo and severe gastroenteritis in a subject treated with placebo. The most common RAD001-related AE was mouth ulcer that, in the majority of cases, was of mild severity.
# [10] = Intention to Treat Population, 0.5 mg
# [11] = Intention to Treat Population, 5 mg
# [12] = Intention to Treat Population, 20 mg
# [13] = Subjects with Baseline Titers <=40, 0.5 mg
# [14] = Subjects with Baseline Titers <=40, 5 mg
# [15] = Subjects with Baseline Titers <=40, 20 mg
structure (smiles),measurement,setting,value
CO[C@H]1C[C@@H]2CC[C@@H](C)[C@@](O)(O2)C(=O)C(=O)N2CCCC[C@H]2C(=O)O[C@H]([C@H](C)C[C@@H]2CC[C@@H](O)[C@H](OC)C2)CC(=O)[C@H](C)/C=C(\C)[C@@H](O)[C@@H](OC)C(=O)[C@H](C)C[C@H](C)/C=C/C=C/C=C/1C [rapamycin],lifespan,[1]; mice,extend lifespan
same,spontaneous physical activity,[1]; old mice,increases spontaneous physical activity
same,response to influenza vaccination,"influenza; elderly mice, 6 weeks of treatment",improved response to influenza vaccination
same,serologic response to influenza as compared to placebo,influenza; mice vaccinated against influenza in the presence of rapamycin,broader serologic response to influenza
"CO[C@H]1C[C@@H]2CC[C@@H](C)[C@@](O)(O2)C(=O)C(=O)N2CCCC[C@H]2C(=O)O[C@H]([C@H](C)C[C@@H]2CC[C@@H](OCCO)[C@H](OC)C2)CC(=O)[C@H](C)/C=C(\C)[C@@H](O)[C@@H](OC)C(=O)[C@H](C)C[C@H](C)/C=C/C=C/C=C/1C [RAD001, (1R,9S,12S,15R,16E,18R,19R,21R,23 S,24E,26E,28E,30S,32S,35R)-1,18-dihydroxy-12-{(1R)-2-[(1 S,3R,4R)-4-(2-hydroxyethoxy)-3-methoxycyclohexyl]-1-methylethyl}-19,30-dimethoxy-15,17,21,23,29,35-hexamethyl-11,36-dioxa-4-aza-tricyclo[30.3.1.04,9]hexatriaconta-16,24,26,28-tetraene-2,3,10,14,20-pentaone]",primary endpoint (>=1.2-fold GMT increase relative to placebo in at least 2 out of 3 vaccine strains),[2]; 0.5 mg daily or 5 mg weekly,met the GMT primary endpoint
same,primary endpoint (>=1.2-fold GMT increase relative to placebo in at least 2 out of 3 vaccine strains),[2]; 20 mg weekly,but not higher dose (20 mg weekly) cohort met the primary endpoint
same,RAD001 concentration versus increase in titer to each influenza vaccine strain,[2]; RAD001 concentration 1 hour post dose after 4 weeks dosing,inverse exposure/response relationship
same,increase in influenza titers in subjects with low baseline titers versus ITT population,[2]; subset with baseline influenza titers <=1:40,greater RAD001-associated increase in titers
same,trough level of study dosing regimens relative to approved transplant and oncology regimens,[3]; human,3-20 fold lower
same,average RAD001 trough level,[3],below detection limits
same,increase in HI GMT ratio for heterologous strain as compared to placebo,[4]; 4 weeks after vaccination,higher
same,Percentage of subjects who seroconvert to heterologous strain 4 weeks after seasonal influenza vaccination,[4]; RAD001 5 mg weekly,16%
same,Percentage of subjects who seroconvert to heterologous strain 4 weeks after seasonal influenza vaccination,[4]; RAD001 20 mg weekly,8%
same,Percent of subjects with seroconversion to influenza 4 weeks after vaccination,B/Brisbane/60/2008; [10],27%
same,Percent of subjects with seroconversion to influenza 4 weeks after vaccination,B/Brisbane/60/2008; [11],22%
same,Percent of subjects with seroconversion to influenza 4 weeks after vaccination,B/Brisbane/60/2008; [12],19%
same,Percent of subjects with seroconversion to influenza 4 weeks after vaccination,B/Brisbane/60/2008; [13],40* Percent
same,Percent of subjects with seroconversion to influenza 4 weeks after vaccination,B/Brisbane/60/2008; [14],33%
same,Percent of subjects with seroconversion to influenza 4 weeks after vaccination,B/Brisbane/60/2008; [15],28%
same,Percent of subjects with seroconversion to influenza 4 weeks after vaccination,[5]; [10],27%
same,Percent of subjects with seroconversion to influenza 4 weeks after vaccination,[5]; [11],27%
same,Percent of subjects with seroconversion to influenza 4 weeks after vaccination,[5]; [12],17%
same,Percent of subjects with seroconversion to influenza 4 weeks after vaccination,[5]; [13],42%
same,Percent of subjects with seroconversion to influenza 4 weeks after vaccination,[5]; [14],45%
same,Percent of subjects with seroconversion to influenza 4 weeks after vaccination,[5]; [15],36%
same,Percent of subjects with seroconversion to influenza 4 weeks after vaccination,H3N2 A/Victoria/210/2009; [10],27%
same,Percent of subjects with seroconversion to influenza 4 weeks after vaccination,H3N2 A/Victoria/210/2009; [11],24%
same,Percent of subjects with seroconversion to influenza 4 weeks after vaccination,H3N2 A/Victoria/210/2009; [12],25%
same,Percent of subjects with seroconversion to influenza 4 weeks after vaccination,H3N2 A/Victoria/210/2009; [13],64%
same,Percent of subjects with seroconversion to influenza 4 weeks after vaccination,H3N2 A/Victoria/210/2009; [14],53%
same,Percent of subjects with seroconversion to influenza 4 weeks after vaccination,H3N2 A/Victoria/210/2009; [15],71%
same,change from baseline to 4 weeks post vaccination in anti-H1N1 influenza IgG and IgM levels versus placebo,[6],No significant difference
same,concentration at 4 weeks,clinical; 0.5 mg daily,0.9 ng/mL
same,concentration at 4 weeks,clinical; 5 mg weekly,< 0.3 ng/mL
same,concentration at 4 weeks,clinical; 20 mg weekly,0.7 ng/mL
same,increase in HI GMT ratio for heterologous strain as compared to placebo,[7]; 4 weeks after vaccination,higher
same,Percentage of subjects who seroconvert to heterologous strain 4 weeks after seasonal influenza vaccination,[7]; RAD001 0.5 mg daily,38%
same,Percentage of subjects who seroconvert to heterologous strain 4 weeks after seasonal influenza vaccination,[7]; RAD001 5 mg weekly,39%*
same,Percentage of subjects who seroconvert to heterologous strain 4 weeks after seasonal influenza vaccination,[7]; RAD001 20 mg weekly,40%*
same,H3N2 heterologous strain seroconversion rate,"[7]; pooled RAD001 cohorts, versus 20% for placebo (p=0.007)",39%
same,decrease in PD-1-positive CD4 T cells as compared to the placebo cohort,[8],−37.1-−28.5%
same,decrease in PD-1-positive CD8 T cells as compared to the placebo cohort,[8],−43.3-−38.5%
same,decrease in PD-1 positive CD4 T cells compared to placebo cohort,[8],30.2% and 32.7%
same,decrease in PD-1 positive CD8 T cells compared to placebo cohort,[8],37.4% and 41.4%
same,increase in PD-1-negative CD4 T cells as compared to the placebo cohort,[8],3.0-4.9%
same,percentage of CD4 PD-1 positive T cells versus baseline,[8],decreased from baseline
same,percentage of CD8 PD-1 positive cells versus baseline,[8],decreased from baseline
same,significant differences in the percentages of naïve lymphocytes versus placebo,[8],not detected
same,Treatment-related AEs: Total AE(s),[9]; RAD001 0.5 mg daily,35 n (%)
same,Treatment-related AEs: Total AE(s),[9]; RAD001 5 mg weekly,46 n (%)
same,Treatment-related AEs: Total AE(s),[9]; RAD001 20 mg weekly,109 n (%)
same,deaths during the study,"[9]; elderly volunteers, 6 week treatment",No deaths occurred
same,severe AEs assessed as related to RAD001,[9]; mouth ulcers in a subject treated with 20 mg weekly,Only one severe AE
